Source: patent US10167262B2, “Herbicidal substituted 3-arylpyrazoles” (FMC CORPORATION, priority 2014, dated 2019)

How the values were obtained:
Assay in all cases: Test E pre-/postemergence greenhouse test, plant response rating 0-100
Type in all cases: in vivo
[1] = tested on: green foxtail (Setaria viridis); conditions: Preemergence, scale 0 to 100
[2] = tested on: yellow nutsedge (Cyperus esculentus); conditions: Preemergence, scale 0 to 100
[3] = tested on: large (Lg) crabgrass (Digitaria sanguinalis); conditions: Preemergence, scale 0 to 100
[4] = tested on: smartweed (ladysthumb smartweed, Polygonum persicaria); conditions: Preemergence, scale 0 to 100
[5] = tested on: giant foxtail (Setaria faberii); conditions: Preemergence, scale 0 to 100
[6] = tested on: johnsongrass (Sorghum halepense); conditions: Preemergence, scale 0 to 100
[7] = tested on: morningglory (Ipomoea coccinea); conditions: Preemergence, scale 0 to 100
[8] = tested on: surinam grass (Brachiaria decumbens); conditions: Preemergence, scale 0 to 100
How it was run: (§1)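 Each species was tested both preemergence, with chemicals sprayed onto freshly planted silt loam, and postemergence, on plants 2 to 18 cm tall in a peat-based medium; the vehicle was a non-phytotoxic solvent mixture with surfactant. After 14 to 21 days in the greenhouse, growth was visually compared with controls and scored 0–100.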

[9] = tested on: velvetleaf (Abutilon theophrasti); conditions: Preemergence, scale 0 to 100
How it was run: as §1

kochia (Kochia scoparia) = conditions: Preemergence, scale 0 to 100
How it was run: as §1

[10] = tested on: field bindweed (Convolvulus arvensis); conditions: scale 0 to 100; for Field Bindweed plant response rating: Preemergence
How it was run: as §1

[11] = tested on: fall panicum (Panicum dichotomiflorum); conditions: scale 0 to 100; for Panicum, Fall plant response rating: Preemergence
How it was run: as §1

[12] = tested on: smartweed (ladysthumb smartweed, Polygonum persicaria); conditions: Postemergence, scale 0 to 100
[13] = tested on: ragweed (common ragweed, Ambrosia elatior); conditions: Preemergence, scale 0 to 100
How it was run: as §1

[14] = tested on: goosegrass (Eleusine indica); conditions: Preemergence, scale 0 to 100
[15] = tested on: nightshade (eastern black nightshade, Solanum ptycanthum); conditions: Preemergence, scale 0 to 100
How it was run: as §1

[16] = tested on: lambsquarters (Chenopodium album); conditions: Preemergence, scale 0 to 100
How it was run: as §1

O=C(c1ccccc1)c1cn(CO)nc1-c1cc(Cl)cc(Cl)c1 [Compound 15, [3-(3,5-dichlorophenyl)-1-(hydroxymethyl)-1H-pyrazol-4-yl]phenylmethanone]
10: Nutsedge, Yellow plant response rating ([2]; 125 g ai/ha)
35%: pest or weed control at 500 g/ha ([11]; Panicum dichotomiflorum, post-emergence, Postemergence, 500 g ai/ha)
95: Ragweed plant response rating ([13]; 250 g ai/ha)
75: Kochia plant response rating (kochia (Kochia scoparia); 250 g ai/ha) | Plant response rating, Smartweed ([12]; 62 g ai/ha)
25: Velvetleaf plant response rating ([9]; 62 g ai/ha)
15: Nutsedge, Yellow plant response rating ([2]; 31 g ai/ha)
80: Kochia plant response rating (kochia (Kochia scoparia); 500 g ai/ha)
20: Velvetleaf plant response rating ([9]; 31 g ai/ha) | Kochia plant response rating (kochia (Kochia scoparia); 125 g ai/ha)
100: Smartweed plant response rating ([4]; 250 g ai/ha) | Smartweed plant response rating ([4]; 500 g ai/ha) | Velvetleaf plant response rating ([9]; 500 g ai/ha) | Ragweed plant response rating ([13]; 500 g ai/ha)
35: Nutsedge, Yellow plant response rating ([2]; 62 g ai/ha) | Velvetleaf plant response rating ([9]; 125 g ai/ha)
65: Velvetleaf plant response rating ([9]; 250 g ai/ha)
0%: pest or weed control at 31 g/ha ([10]; Convolvulus arvensis, post-emergence, Postemergence, 31 g ai/ha) | pest or weed control at 62 g/ha ([10]; Convolvulus arvensis, post-emergence, Postemergence, 62 g ai/ha) | pest or weed control at 125 g/ha ([10]; Convolvulus arvensis, post-emergence, Postemergence, 125 g ai/ha) | pest or weed control at 250 g/ha ([10]; Convolvulus arvensis, post-emergence, Postemergence, 250 g ai/ha) | pest or weed control at 500 g/ha ([10]; Convolvulus arvensis, post-emergence, Postemergence, 500 g ai/ha) | pest or weed control at 31 g/ha ([11]; Panicum dichotomiflorum, post-emergence, Postemergence, 31 g ai/ha) | pest or weed control at 62 g/ha ([11]; Panicum dichotomiflorum, post-emergence, Postemergence, 62 g ai/ha) | pest or weed control at 125 g/ha ([11]; Panicum dichotomiflorum, post-emergence, Postemergence, 125 g ai/ha) | pest or weed control at 250 g/ha ([11]; Panicum dichotomiflorum, post-emergence, Postemergence, 250 g ai/ha)
40: Kochia plant response rating (kochia (Kochia scoparia); 62 g ai/ha)
0: Foxtail, Green plant response rating ([1]; 31 g ai/ha) | Foxtail, Green plant response rating ([1]; 62 g ai/ha) | Foxtail, Green plant response rating ([1]; 125 g ai/ha) | Foxtail, Green plant response rating ([1]; 250 g ai/ha) | Foxtail, Green plant response rating ([1]; 500 g ai/ha) | Nutsedge, Yellow plant response rating ([2]; 250 g ai/ha) | Nutsedge, Yellow plant response rating ([2]; 500 g ai/ha) | Crabgrass, Large plant response rating ([3]; 31 g ai/ha) | Crabgrass, Large plant response rating ([3]; 62 g ai/ha) | Crabgrass, Large plant response rating ([3]; 125 g ai/ha) | Crabgrass, Large plant response rating ([3]; 250 g ai/ha) | Crabgrass, Large plant response rating ([3]; 500 g ai/ha) | Smartweed plant response rating ([4]; 31 g ai/ha) | Smartweed plant response rating ([4]; 62 g ai/ha) | Smartweed plant response rating ([4]; 125 g ai/ha) | Foxtail, Giant plant response rating ([5]; 31 g ai/ha) | Foxtail, Giant plant response rating ([5]; 62 g ai/ha) | Foxtail, Giant plant response rating ([5]; 125 g ai/ha) | Foxtail, Giant plant response rating ([5]; 250 g ai/ha) | Foxtail, Giant plant response rating ([5]; 500 g ai/ha) | Johnsongrass plant response rating ([6]; 31 g ai/ha) | Johnsongrass plant response rating ([6]; 62 g ai/ha) | Johnsongrass plant response rating ([6]; 125 g ai/ha) | Johnsongrass plant response rating ([6]; 250 g ai/ha) | Johnsongrass plant response rating ([6]; 500 g ai/ha) | Morningglory plant response rating ([7]; 62 g ai/ha) | Morningglory plant response rating ([7]; 125 g ai/ha) | Morningglory plant response rating ([7]; 250 g ai/ha) | Morningglory plant response rating ([7]; 500 g ai/ha) | Surinam Grass plant response rating ([8]; 31 g ai/ha) | Surinam Grass plant response rating ([8]; 62 g ai/ha) | Surinam Grass plant response rating ([8]; 125 g ai/ha) | Surinam Grass plant response rating ([8]; 250 g ai/ha) | Surinam Grass plant response rating ([8]; 500 g ai/ha) | Kochia plant response rating (kochia (Kochia scoparia); 31 g ai/ha) | Field Bindweed plant response rating ([10]; 31 g ai/ha) | Field Bindweed plant response rating ([10]; 62 g ai/ha) | Field Bindweed plant response rating ([10]; 125 g ai/ha) | Field Bindweed plant response rating ([10]; 250 g ai/ha) | Field Bindweed plant response rating ([10]; 500 g ai/ha) | Panicum, Fall plant response rating ([11]; 31 g ai/ha) | Panicum, Fall plant response rating ([11]; 62 g ai/ha) | Panicum, Fall plant response rating ([11]; 125 g ai/ha) | Panicum, Fall plant response rating ([11]; 250 g ai/ha) | Panicum, Fall plant response rating ([11]; 500 g ai/ha) | Plant response rating, Smartweed ([12]; 31 g ai/ha) | Ragweed plant response rating ([13]; 31 g ai/ha) | Ragweed plant response rating ([13]; 62 g ai/ha) | Ragweed plant response rating ([13]; 125 g ai/ha) | Goosegrass plant response rating ([14]; 31 g ai/ha) | Goosegrass plant response rating ([14]; 125 g ai/ha) | Goosegrass plant response rating ([14]; 250 g ai/ha) | Goosegrass plant response rating ([14]; 500 g ai/ha)

CCn1cc(C(=O)c2ccccc2)c(-c2cc(Cl)cc(Cl)c2)n1 [Compound 31, [3-(3,5-dichlorophenyl)-1-ethyl-1H-pyrazol-4-yl]phenylmethanone]
100: Lambsquarters plant response rating ([16]; 125 g ai/ha) | Lambsquarters plant response rating ([16]; 250 g ai/ha) | Lambsquarters plant response rating ([16]; 500 g ai/ha)
80: Velvetleaf plant response rating ([9]; 250 g ai/ha) | Velvetleaf plant response rating ([9]; 500 g ai/ha) | Ragweed plant response rating ([13]; 500 g ai/ha)
70: Kochia plant response rating (kochia (Kochia scoparia); 500 g ai/ha)
35: Kochia plant response rating (kochia (Kochia scoparia); 62 g ai/ha) | Ragweed plant response rating ([13]; 125 g ai/ha)
25: Kochia plant response rating (kochia (Kochia scoparia); 125 g ai/ha)
0: Foxtail, Green plant response rating ([1]; 62 g ai/ha) | Foxtail, Green plant response rating ([1]; 125 g ai/ha) | Foxtail, Green plant response rating ([1]; 250 g ai/ha) | Foxtail, Green plant response rating ([1]; 500 g ai/ha) | Nutsedge, Yellow plant response rating ([2]; 62 g ai/ha) | Nutsedge, Yellow plant response rating ([2]; 125 g ai/ha) | Nutsedge, Yellow plant response rating ([2]; 250 g ai/ha) | Nutsedge, Yellow plant response rating ([2]; 500 g ai/ha) | Crabgrass, Large plant response rating ([3]; 62 g ai/ha) | Crabgrass, Large plant response rating ([3]; 125 g ai/ha) | Crabgrass, Large plant response rating ([3]; 250 g ai/ha) | Crabgrass, Large plant response rating ([3]; 500 g ai/ha) | Foxtail, Giant plant response rating ([5]; 62 g ai/ha) | Foxtail, Giant plant response rating ([5]; 125 g ai/ha) | Foxtail, Giant plant response rating ([5]; 250 g ai/ha) | Foxtail, Giant plant response rating ([5]; 500 g ai/ha) | Johnsongrass plant response rating ([6]; 62 g ai/ha) | Johnsongrass plant response rating ([6]; 125 g ai/ha) | Johnsongrass plant response rating ([6]; 250 g ai/ha) | Johnsongrass plant response rating ([6]; 500 g ai/ha) | Morningglory plant response rating ([7]; 62 g ai/ha) | Morningglory plant response rating ([7]; 125 g ai/ha) | Morningglory plant response rating ([7]; 250 g ai/ha) | Morningglory plant response rating ([7]; 500 g ai/ha) | Nightshade plant response rating ([15]; 62 g ai/ha) | Nightshade plant response rating ([15]; 125 g ai/ha) | Nightshade plant response rating ([15]; 250 g ai/ha) | Surinam Grass plant response rating ([8]; 62 g ai/ha) | Surinam Grass plant response rating ([8]; 125 g ai/ha) | Surinam Grass plant response rating ([8]; 250 g ai/ha) | Surinam Grass plant response rating ([8]; 500 g ai/ha) | Field Bindweed plant response rating ([10]; 62 g ai/ha) | Field Bindweed plant response rating ([10]; 125 g ai/ha) | Field Bindweed plant response rating ([10]; 250 g ai/ha) | Field Bindweed plant response rating ([10]; 500 g ai/ha) | Panicum, Fall plant response rating ([11]; 62 g ai/ha) | Panicum, Fall plant response rating ([11]; 125 g ai/ha) | Lambsquarters plant response rating ([16]; 62 g ai/ha) | Ragweed plant response rating ([13]; 62 g ai/ha) | Goosegrass plant response rating ([14]; 62 g ai/ha) | Goosegrass plant response rating ([14]; 125 g ai/ha) | Goosegrass plant response rating ([14]; 250 g ai/ha) | Goosegrass plant response rating ([14]; 500 g ai/ha)
50: Nightshade plant response rating ([15]; 500 g ai/ha) | Velvetleaf plant response rating ([9]; 125 g ai/ha) | Kochia plant response rating (kochia (Kochia scoparia); 250 g ai/ha) | Ragweed plant response rating ([13]; 250 g ai/ha)
65: Velvetleaf plant response rating ([9]; 62 g ai/ha)
